Reference: patent US20250051356A1, “RIFABUTIN ANALOGS FOR THE TREATMENT OF DISEASE” (priority 2021, published 2025)
Values after ≈ are worked out from the molar mass of the structure shown. Where two headings read alike, the source gives them in different places.

Experiments:
Assay type in all cases: cell-based
[1] = test system: A. baumannii (HUMC1 strain); assay: MIC by broth microdilution against A. baumannii in RPMI + 10% FCS; conditions: Acinetobacter baumannii, read-out: MIC A. baumannii
M. avium (ATCC 25291) = assay: MIC against M. avium in CAMHB + ADC; conditions: Mycobacterium avium
[2] = test system: S. aureus (UAMS-1625 strain); assay: MIC by broth microdilution against S. aureus; conditions: Staphylococcus aureus, read-out: MIC S. aureus
[3] = test system: M. abscessus subsp. abscessus ATCC 19977; assay: MIC against M. abscessus in Middlebrook 7H9 + ADC; conditions: Mycobacteroides abscessus
M. xenopi (ATCC 19250) = assay: MIC against M. xenopi in CAMHB + ADC; conditions: Mycobacterium xenopi
M. kansasii (ATCC 12478) = assay: MIC against M. kansasii in CAMHB + ADC; conditions: Mycobacterium kansasii
[4] = ATCC25291, ATCC 25291, CAMHB + ADC (5%), read-out: MIC M. avium
[5] = ATCC19977, ATCC 19977, 7H9 + ADC, read-out: MIC M. abscessus
[6] = ATCC19250, ATCC 19250, CAMHB + ADC (5%), read-out: MIC M. xenopi
[7] = ATCC12478, ATCC 12478, CAMHB + ADC (5%), read-out: MIC M. kansasii
[8] = ATCC19250, read-out: MIC M. xenopi
[9] = ATCC25291, read-out: MIC M. avium
[10] = ATCC19977, read-out: MIC M. abscessus
[11] = ATCC12478, read-out: MIC M. kansasii

Row | Compound | MIC ([1]; HUMC1 strain, RPMI + 10% FCS) [µg/mL] | MIC (M. avium (ATCC 25291); [4]) [µg/mL] | MIC [2] [µg/mL] | MIC [3, 5] [µg/mL] | MIC (M. xenopi (ATCC 19250); [6]) [µg/mL] | MIC (M. kansasii (ATCC 12478); [7]) [µg/mL] | MIC (M. xenopi (ATCC 19250); [8]) [µg/mL] | MIC [1] [µg/mL] | MIC (M. avium (ATCC 25291); [9]) [µg/mL] | MIC [3, 10] [µg/mL] | MIC (M. kansasii (ATCC 12478); [11]) [µg/mL]
1 | CO[C@H]1/C=C/OC2(C)Oc3c(C)c(O)c4c(c3C2=O)C2=NC3(CCN(CC(C)C)CC3)NC2=C(NC(=O)/C(C)=C\C=C\[C@H](C)[C@H](O)[C@@H](C)[C@@H](O)[C@@H](C)[C@H](OC(=O)CCCC(=O)N2CCCN(c3ccc(F)cc3)CC2)[C@@H]1C)C4=O (stereo partly drawn) [Compound 86] | 0.008 | 0.125 | 0.5 (≈ 0.456 µM) | 0.125 | 0.03 | 0.008 |  |  |  |  | 
2 | CO[C@H]1/C=C/O[C@@]2(C)Oc3c(C)c(O)c4c(c3C2=O)C2=NC3(CCN(CC(C)C)CC3)NC2=C(NC(=O)/C(C)=C\C=C\[C@H](C)[C@H](O)[C@@H](C)[C@@H](O)[C@@H](C)[C@H](OC(=O)CC(=O)N2CCN(Cc3ccccc3)CC2)[C@@H]1C)C4=O [Compound 91] | 0.016 | 0.125 | 0.25 (≈ 0.238 µM) | 0.125 | 0.03 | 0.001 |  |  |  |  | 
3 | CO[C@H]1/C=C/OC2(C)Oc3c(C)c(O)c4c(c3C2=O)C2=NC3(CCN(CC(C)C)CC3)NC2=C(NC(=O)/C(C)=C\C=C\[C@H](C)[C@H](O)[C@@H](C)[C@@H](O)[C@@H](C)[C@H](OC(=O)CC(=O)NC2CCN(Cc3ccccc3)C2)[C@@H]1C)C4=O (stereo partly drawn) [Compound 93] | 0.008 | 0.5 | 0.125 (≈ 0.119 µM) | 0.25 | 0.25 | 0.008 |  |  |  |  | 
4 | CO[C@H]1/C=C/O[C@@]2(C)Oc3c(C)c(O)c4c(c3C2=O)C2=NC3(CCN(CC(C)C)CC3)NC2=C(NC(=O)/C(C)=C\C=C\[C@H](C)[C@H](O)[C@@H](C)[C@@H](O)[C@@H](C)[C@H](OC(=O)CC(=O)N2CCN(C3Cc5ccccc5C3)CC2)[C@@H]1C)C4=O [Compound 95] | 0.03 | 0.125 | 0.5 (≈ 0.465 µM) | 0.125 | 0.03 | 0.002 |  |  |  |  | 
5 | CO[C@H]1/C=C/OC2(C)Oc3c(C)c(O)c4c(c3C2=O)C2=NC3(CCN(CC(C)C)CC3)NC2=C(NC(=O)/C(C)=C\C=C\[C@H](C)[C@H](O)[C@@H](C)[C@@H](O)[C@@H](C)[C@H](OC(=O)CC(=O)N2CCN(C3CCCCC3)CC2)[C@@H]1C)C4=O (stereo partly drawn) [Compound 96] | 0.008 | 0.03 | 0.125 (≈ 0.12 µM) | 0.25 |  | 0.008 | 0.125 |  |  |  | 
6 | CO[C@H]1/C=C/OC2(C)Oc3c(C)c(O)c4c(c3C2=O)C2=NC3(CCN(CC(C)C)CC3)NC2=C(NC(=O)/C(C)=C\C=C\[C@H](C)[C@H](O)[C@@H](C)[C@@H](O)[C@@H](C)[C@H](OC(=O)CC(=O)NCCCN(C)c2ccccc2)[C@@H]1C)C4=O (stereo partly drawn) [Compound 97] | 0.008 | 0.125 | 0.25 (≈ 0.241 µM) | 0.25 | 0.06 | 0.004 |  |  |  |  | 
7 | CO[C@H]1/C=C/O[C@@]2(C)Oc3c(C)c(O)c4c(c3C2=O)C2=NC3(CCN(CC(C)C)CC3)NC2=C(NC(=O)/C(C)=C\C=C\[C@H](C)[C@H](O)[C@@H](C)[C@@H](O)[C@@H](C)[C@H](OC(=O)CC(=O)N2CCN(c3ccccn3)CC2)[C@@H]1C)C4=O [Compound 99] | 0.008 | 0.125 | 0.06 (≈ 0.0579 µM) | 0.25 | 0.125 | 0.004 |  |  |  |  | 
8 | CO[C@H]1/C=C/OC2(C)Oc3c(C)c(O)c4c(c3C2=O)C2=NC3(CCN(CC(C)C)CC3)NC2=C(NC(=O)/C(C)=C\C=C\[C@H](C)[C@H](O)[C@@H](C)[C@@H](O)[C@@H](C)[C@H](OC(=O)CC(=O)N2CCC(c3ccccc3)CC2)[C@@H]1C)C4=O (stereo partly drawn) [Compound 101] |  |  | 0.5 (≈ 0.483 µM) |  |  |  | 0.03 | 0.06 | 0.03 | 0.125 | 0.002
9 | CO[C@H]1/C=C/OC2(C)Oc3c(C)c(O)c4c(c3C2=O)C2=NC3(CCN(CC(C)C)CC3)NC2=C(NC(=O)/C(C)=C\C=C\[C@H](C)[C@H](O)[C@@H](C)[C@@H](O)[C@@H](C)[C@H](OC(=O)CC(=O)N2C3CCC2CC(c2ccccc2)C3)[C@@H]1C)C4=O (stereo partly drawn) [Compound 102] |  | 0.03 | 0.5 (≈ 0.472 µM) |  |  |  | 0.06 | 0.03 |  | 0.25 | 0.008
10 | CO[C@H]1/C=C/O[C@@]2(C)Oc3c(C)c(O)c4c(c3C2=O)C2=NC3(CCN(CC(C)C)CC3)NC2=C(NC(=O)/C(C)=C\C=C\[C@H](C)[C@H](O)[C@@H](C)[C@@H](O)[C@@H](C)[C@H](OC(=O)CC(=O)N2CCC(c3ccncc3)CC2)[C@@H]1C)C4=O [Compound 104] | 0.004 | 0.25 | 0.06 (≈ 0.058 µM) | 0.25 | 0.125 | 0.004 |  |  |  |  | 
11 | CO[C@H]1/C=C/O[C@@]2(C)Oc3c(C)c(O)c4c(c3C2=O)C2=NC3(CCN(CC(C)C)CC3)NC2=C(NC(=O)/C(C)=C\C=C\[C@H](C)[C@H](O)[C@@H](C)[C@@H](O)[C@@H](C)[C@H](OC(=O)CC(=O)N2CCC(Nc3ccc(C)cc3)CC2)[C@@H]1C)C4=O [Compound 105] |  |  | 0.25 (≈ 0.235 µM) |  |  |  | 0.03 | 0.06 | 0.125 | 0.25 | 0.004
12 | COc1cc(NC2CCN(C(=O)CC(=O)O[C@H]3[C@H](C)[C@H](O)[C@H](C)[C@@H](O)[C@@H](C)/C=C/C=C(/C)C(=O)NC4=C5NC6(CCN(CC(C)C)CC6)N=C5c5c(c(O)c(C)c6c5C(=O)[C@@](C)(O/C=C/[C@H](OC)[C@H]3C)O6)C4=O)CC2)cc(OC)c1 [Compound 106] | 0.008 | 0.5 | 0.25 (≈ 0.225 µM) | 0.25 | 0.125 | 0.03 |  |  |  |  | 
13 | CO[C@H]1/C=C/O[C@@]2(C)Oc3c(C)c(O)c4c(c3C2=O)C2=NC3(CCN(CC(C)C)CC3)NC2=C(NC(=O)/C(C)=C\C=C\[C@H](C)[C@H](O)[C@@H](C)[C@@H](O)[C@@H](C)[C@H](OC(=O)CC(=O)N2CCC(Nc3ccccc3C#N)CC2)[C@@H]1C)C4=O [Compound 107] |  |  | 0.25 (≈ 0.233 µM) |  |  |  | 0.06 | 0.5 | 0.125 | 0.125 | 0.016
14 | CO[C@H]1/C=C/O[C@@]2(C)Oc3c(C)c(O)c4c(c3C2=O)C2=NC3(CCN(CC(C)C)CC3)NC2=C(NC(=O)/C(C)=C\C=C\[C@H](C)[C@H](O)[C@@H](C)[C@@H](O)[C@@H](C)[C@H](OC(=O)C(C)C(=O)N2CCCN(c3ccc(F)cc3)CC2)[C@@H]1C)C4=O (stereo partly drawn) [Compound 108] | 0.06 | 0.25 | 0.25 (≈ 0.231 µM) | 0.25 | 0.06 | 0.008 |  |  |  |  | 
15 | CO[C@H]1/C=C/O[C@@]2(C)Oc3c(C)c(O)c4c(c3C2=O)C2=NC3(CCN(CC(C)C)CC3)NC2=C(NC(=O)/C(C)=C\C=C\[C@H](C)[C@H](O)[C@@H](C)[C@@H](O)[C@@H](C)[C@H](OC(=O)CC(=O)N2CCC(Nc3cccnc3)CC2)[C@@H]1C)C4=O [Compound 109] |  |  | 0.06 (≈ 0.0571 µM) |  |  |  | 0.25 | 0.004 | 1 | 0.25 | 0.03
16 | CO[C@H]1/C=C/O[C@@]2(C)Oc3c(C)c(O)c4c(c3C2=O)C2=NC3(CCN(CC(C)C)CC3)NC2=C(NC(=O)/C(C)=C\C=C\[C@H](C)[C@H](O)[C@@H](C)[C@@H](O)[C@@H](C)[C@H](OC(=O)CC(=O)N2CCC(Nc3ccncc3Cl)CC2)[C@@H]1C)C4=O [Compound 110] | 0.06 | 0.25 | 0.125 (≈ 0.115 µM) |  |  | 0.008 | 0.125 |  |  | 0.125 | 
17 | CO[C@H]1/C=C/O[C@@]2(C)Oc3c(C)c(O)c4c(c3C2=O)C2=NC3(CCN(CC(C)C)CC3)NC2=C(NC(=O)/C(C)=C\C=C\[C@H](C)[C@H](O)[C@@H](C)[C@@H](O)[C@@H](C)[C@H](OC(=O)CC(=O)N2CCN(c3ccncc3)CC2)[C@@H]1C)C4=O [Compound 116] | ≤ 0.002 | 2 | 0.06 (≈ 0.0579 µM) | 0.25 | 1 | 0.06 |  |  |  |  | 
18 | CO[C@H]1/C=C/O[C@@]2(C)Oc3c(C)c(O)c4c(c3C2=O)C2=NC3(CCN(CC(C)C)CC3)NC2=C(NC(=O)/C(C)=C\C=C\[C@H](C)[C@H](O)[C@@H](C)[C@@H](O)[C@@H](C)[C@H](OC(=O)CC(=O)N2CCN(c3ncccn3)CC2)[C@@H]1C)C4=O [Compound 117] | ≤ 0.002 | 0.25 | 0.03 (≈ 0.0289 µM) | 0.125 | 0.125 | 0.004 |  |  |  |  | 
19 | CO[C@H]1/C=C/O[C@@]2(C)Oc3c(C)c(O)c4c(c3C2=O)C2=NC3(CCN(CC(C)C)CC3)NC2=C(NC(=O)/C(C)=C\C=C\[C@H](C)[C@H](O)[C@@H](C)[C@@H](O)[C@@H](C)[C@H](OC(=O)CC(=O)N2CCN(Cc3ccccn3)CC2)[C@@H]1C)C4=O [Compound 118] | ≤ 0.002 | 2 | 0.06 (≈ 0.0571 µM) | 0.25 | 0.25 | 0.03 |  |  |  |  | 
20 | CO[C@H]1/C=C/O[C@@]2(C)Oc3c(C)c(O)c4c(c3C2=O)C2=NC3(CCN(CC(C)C)CC3)NC2=C(NC(=O)/C(C)=C\C=C\[C@H](C)[C@H](O)[C@@H](C)[C@@H](O)[C@@H](C)[C@H](OC(=O)CC(=O)N2CCN(Cc3ccncc3)CC2)[C@@H]1C)C4=O [Compound 119] | ≤ 0.002 | 1 | 0.016 (≈ 0.0152 µM) | 0.25 | 0.25 | 0.008 |  |  |  |  | 
